Measurements taken from ChEMBL document CHEMBL5380795, “Design, Synthesis, and Bioactivity Investigation of Cyclic Lipopeptide Antibiotics Containing Eight to Nine Amino Acids” (J Med Chem, 2023).
Values after ≈ are worked out from the molar mass of the structure shown. Active and inactive are the calls of the source. The rule behind the calls is not given here.

Tests used:
Escherichia coli [1] = experiment: Antibacterial activity against Escherichia coli clinical isolate 19-2 assessed as inhibition of bacterial growth incubated for 18 to 24 hrs by broth microdilution method; format: functional; settings: time 18-24 hrs
Acinetobacter baumannii = experiment: Antibacterial activity against oxacillinase-27 producing Acinetobacter baumannii NCTC 13304 assessed as inhibition of bacterial growth incubated for 18 to 24 hrs by broth microdilution method; format: functional; settings: time 18-24 hrs
[2] = Acute toxicity in ICR mouse assessed as animal death at 16 mg/kg, iv administered into tail vein and measured after 0.5 to 1 mins; format: organism-based; settings: in vivo, time 0.5-1 min
Escherichia coli [3] = experiment: Potentiation of rifampicin induced antibacterial activity in Escherichia coli ATCC 25922 assessed as rifampicin MIC at 0.015 ug/ml incubated for 18 to 24 hrs by broth microdilution method (reference value: 2 ug/ml); format: functional; settings: dose 0.015 µg/ml, time 18-24 hrs
Escherichia coli [4] = experiment: Antibacterial activity against Escherichia coli ATCC 25922 assessed as inhibition of bacterial growth incubated for 18 to 24 hrs by broth microdilution method; format: functional; settings: time 18-24 hrs
Pseudomonas aeruginosa [5] = experiment: Antibacterial activity against Pseudomonas aeruginosa clinical isolate 19-1 assessed as inhibition of bacterial growth incubated for 18 to 24 hrs by broth microdilution method; format: functional; settings: time 18-24 hrs
Escherichia coli [6] = experiment: Bactericidal activity against Escherichia coli ATCC BAA-2523 assessed as reduction in bacterial count at 0.5 to 2 times MIC measured after 2 to 24 hrs by time-kill assay; format: functional, organism-based; settings: time 2-24 hrs
[7] = Acute toxicity in ICR mouse assessed as adverse effects at 8.19 mg/kg, iv administered into tail vein and measured twice daily over 1 week; format: organism-based; settings: in vivo, 168 h, time 1 weeks
[8] = Clearance in overnight fasted Sprague-Dawley rat at 4 mg/kg, ip measured for 24 hrs by LC-MS/MS analysis; format: ADME, organism-based; settings: in vivo
Escherichia coli [9] = experiment: Antibacterial activity against Escherichia coli NCTC 13353 assessed as inhibition of bacterial growth incubated for 18 to 24 hrs by broth microdilution method; format: functional; settings: time 18-24 hrs
[10] = Half life in overnight fasted Sprague-Dawley rat at 4 mg/kg, ip measured for 24 hrs by LC-MS/MS analysis; format: ADME, organism-based; settings: in vivo
[11] = system: Staphylococcus epidermidis; experiment: Antibacterial activity against methicillin resistant Staphylococcus epidermidis clinical isolate 19-6 assessed as inhibition of bacterial growth incubated for 18 to 24 hrs by broth microdilution method; format: functional; settings: time 18-24 hrs
Escherichia coli [12] = experiment: Bactericidal activity against Escherichia coli ATCC BAA-2523 assessed as reduction in bacterial count at 4 times MIC measured after 2 hrs by time-kill assay; format: functional, organism-based
Escherichia coli [13] = experiment: Potentiation of rifampicin induced antibacterial activity in Escherichia coli ATCC 25922 assessed as rifampicin MIC at 2 ug/ml incubated for 18 to 24 hrs by broth microdilution method (reference value: 2 ug/ml); format: functional; settings: dose 2 µg/ml, time 18-24 hrs
Escherichia coli [14] = experiment: Potentiation of rifampicin induced antibacterial activity in Escherichia coli ATCC 25922 assessed as rifampicin MIC at 0.06 ug/ml incubated for 18 to 24 hrs by broth microdilution method (reference value: 2 ug/ml); format: functional; settings: dose 0.06 µg/ml, time 18-24 hrs
[15] = AUC (0 to infinity) in overnight fasted Sprague-Dawley rat at 4 mg/kg, ip measured for 24 hrs by LC-MS/MS analysis; format: ADME, organism-based; design: dose 4 mg/kg, time 24 hrs, route ip; settings: in vivo
Escherichia coli [16] = experiment: Potentiation of rifampicin induced antibacterial activity in Escherichia coli ATCC 25922 assessed as rifampicin MIC at 0.25 ug/ml incubated for 18 to 24 hrs by broth microdilution method (reference value: 2 ug/ml); format: functional; settings: dose 0.25 µg/ml, time 18-24 hrs
Escherichia coli [17] = experiment: Bactericidal activity against Escherichia coli ATCC BAA-2523 assessed as log reduction in bacterial count by measuring reduction in CFU/ml at 4 times MIC measured after 24 hrs by time-kill assay; format: functional
Pseudomonas aeruginosa [18] = experiment: Antibacterial activity against carbapenem resistant Pseudomonas aeruginosa clinical isolate 19-3 assessed as inhibition of bacterial growth incubated for 18 to 24 hrs by broth microdilution method; format: functional; settings: time 18-24 hrs
Escherichia coli [19] = experiment: Potentiation of rifampicin induced antibacterial activity in Escherichia coli ATCC 25922 assessed as rifampicin MIC at 0.004 ug/ml incubated for 18 to 24 hrs by broth microdilution method (reference value: 2 ug/ml); format: functional; settings: dose 0.004 µg/ml, time 18-24 hrs
Klebsiella pneumoniae [20] = experiment: Antibacterial activity against carbapenem resistant Klebsiella pneumoniae clinical isolate 19-15 assessed as inhibition of bacterial growth incubated for 18 to 24 hrs by broth microdilution method; format: functional; settings: time 18-24 hrs
Escherichia coli [21] = experiment: Antibacterial activity against Escherichia coli ATCC BAA-2523 infected in ICR mouse assessed as mouse survival at 2 mg/kg, iv administered into tail vein and measured daily for 7 days relative to control; format: functional; settings: ATCC BAA-2523, 168 h, time 7 day
[22] = Selectivity index, ratio of IC50 for cytotoxicity against human HK-2 cells to MIC for antibacterial activity against Escherichia coli ATCC BAA-2523; format: toxicity, cell-based
Klebsiella pneumoniae [23] = experiment: Antibacterial activity against carbapenem resistant Klebsiella pneumoniae clinical isolate 19-17 assessed as inhibition of bacterial growth incubated for 18 to 24 hrs by broth microdilution method; format: functional; settings: time 18-24 hrs
Escherichia coli [24] = experiment: Potentiation of rifampicin induced antibacterial activity in Escherichia coli ATCC 25922 assessed as rifampicin MIC at 1 ug/ml incubated for 18 to 24 hrs by broth microdilution method (reference value: 2 ug/ml); format: functional; settings: dose 1 µg/ml, time 18-24 hrs
Escherichia coli [25] = experiment: Potentiation of rifampicin induced antibacterial activity in Escherichia coli ATCC 25922 assessed as rifampicin MIC at 0.125 ug/ml incubated for 18 to 24 hrs by broth microdilution method (reference value: 2 ug/ml); format: functional; settings: dose 0.125 µg/ml, time 18-24 hrs
[26] = Cytotoxicity against human HK-2 cells assessed as inhibition of cell growth incubated for 72 hrs by CCK-8 assay; format: toxicity, cell-based
Klebsiella pneumoniae [27] = experiment: Antibacterial activity against KPC producing Klebsiella pneumoniae ATCC BAA-1705 assessed as inhibition of bacterial growth incubated for 18 to 24 hrs by broth microdilution method; format: functional; settings: time 18-24 hrs
[28] = system: Staphylococcus epidermidis; experiment: Antibacterial activity against methicillin resistant Staphylococcus epidermidis clinical isolate 19-5 assessed as inhibition of bacterial growth incubated for 18 to 24 hrs by broth microdilution method; format: functional; settings: time 18-24 hrs
Escherichia coli [29] = experiment: Potentiation of rifampicin induced antibacterial activity in Escherichia coli ATCC 25922 assessed as rifampicin MIC at 0.03 ug/ml incubated for 18 to 24 hrs by broth microdilution method (reference value: 2 ug/ml); format: functional; settings: dose 0.03 µg/ml, time 18-24 hrs
Escherichia coli [30] = experiment: Potentiation of rifampicin induced antibacterial activity in Escherichia coli ATCC 25922 assessed as rifampicin MIC at 0.5 ug/ml incubated for 18 to 24 hrs by broth microdilution method (reference value: 2 ug/ml); format: functional; settings: dose 0.5 µg/ml, time 18-24 hrs
Escherichia coli [31] = experiment: Potentiation of rifampicin induced antibacterial activity in Escherichia coli ATCC 25922 assessed as rifampicin MIC at 4 ug/ml incubated for 18 to 24 hrs by broth microdilution method (reference value: 2 ug/ml); format: functional; settings: dose 4 µg/ml, time 18-24 hrs
Escherichia coli [32] = experiment: Antibacterial activity against KPC producing Escherichia coli ATCC BAA-2340 assessed as inhibition of bacterial growth incubated for 18 to 24 hrs by broth microdilution method; format: functional; settings: time 18-24 hrs

## CCCCCCC[C@@H](O)CC(=O)N[C@H](CCN)C(=O)N[C@H]1CCNC(=O)[C@H]([C@@H](C)O)NC(=O)[C@H](CCN)NC(=O)[C@H](CCN)NC(=O)[C@H]([C@@H](C)O)NC(=O)[C@@H](Cc2ccccc2)NC(=O)[C@H](CCN)NC1=O
Escherichia coli [1]
  MIC: 1 µg/mL (≈ 0.98 µM)
Acinetobacter baumannii
  MIC: 8 µg/mL (≈ 7.84 µM)
[2]
  Activity: Toxic
Escherichia coli [3]
  MIC: 0.125 µg/mL
Escherichia coli [4]
  MIC: 4 µg/mL (≈ 3.92 µM)
Pseudomonas aeruginosa [5]
  MIC: 0.5 µg/mL (≈ 0.49 µM)
Escherichia coli [6]
  Activity: inactive
[7]
  Activity: Non-Toxic
[8]
  CL/F: 3.8 mL/min/kg
Escherichia coli [9]
  MIC: 2 µg/mL (≈ 1.96 µM)
[10]
  half-life: 3.7 h
[11]
  MIC: > 64 µg/mL
Escherichia coli [12]
  Activity: Active
Escherichia coli [13]
  MIC: ≤ 0.06 µg/mL
Escherichia coli [14]
  MIC: ≤ 0.06 µg/mL
[15]
  AUC(0-inf): 17600 ng·h/mL
Escherichia coli [16]
  MIC: ≤ 0.06 µg/mL
Escherichia coli [17]
  log(activity): 0.6
Pseudomonas aeruginosa [18]
  MIC: 0.5 µg/mL (≈ 0.49 µM)
Escherichia coli [19]
  MIC: 0.5 µg/mL
Klebsiella pneumoniae [20]
  MIC: 4 µg/mL (≈ 3.92 µM)
Escherichia coli [21]
  survival at 2 mg/kg: 62.5%
[22]
  selectivity ratio: 828
Klebsiella pneumoniae [23]
  MIC: 8 µg/mL (≈ 7.84 µM)
Escherichia coli [24]
  MIC: ≤ 0.06 µg/mL
Escherichia coli [25]
  MIC: ≤ 0.06 µg/mL
[26]
  IC50 at 72 h: 414 µg/mL (≈ 406 µM)
Klebsiella pneumoniae [27]
  MIC: 1 µg/mL (≈ 0.98 µM)
[28]
  MIC: 64 µg/mL (≈ 62.7 µM)
Escherichia coli [29]
  MIC: ≤ 0.06 µg/mL
Escherichia coli [30]
  MIC: ≤ 0.06 µg/mL
Escherichia coli [31]
  MIC: ≤ 0.06 µg/mL
Escherichia coli [32]
  MIC: 1 µg/mL (≈ 0.98 µM)
